Data: patent US6417225B1, “Prophylactic/therapeutic agents for atherosclerosis” (Chugai Seiyaku Kabushiki Kaisha, priority 1997, dated 2002)

Key:
[1] = tested on: LDL receptor-deficient mice; assay: Effect on atherosclerosis in an in vivo atherosclerosis model (2): LDL receptor-deficient mice; details: for Inhibitory effect on arteriosclerosis (in words): LDL receptor-deficient mice; for Area of Arteriosclerotic lesions (mm^2): 0.5% in high-fat diet, 13 weeks, arcus aorta
Source text: Effect on Atherosclerosis in an in vivo Atherosclerosis Model (2)
In order to evaluate the inhibitory effect of the compound of Example 1 on atherosclerosis in an in vivo atherosclerosis, LDL receptor-deficient mice were used.
One of the remaining two groups similarly received a high-fat diet containing neither probucol nor the compound of Example 1 and was used as a control and the other one group similarly received a normal, chow diet containing neither probucol nor the compound of Example 1.
(§1) After administration of the compound for 13 weeks, the arcus aorta was removed from each of the animals, transversely sectioned and stained with Sudan IV. The area of arteriosclerotic lesions was determined by an image analysis under an optical microscope. The average of the area of arteriosclerotic lesions in the aucus aortae was calculated for each animal. The number of animals used for the evaluation was 5 for the normal chow diet group consisting of female mice and 7-9 for the other groups.

[2] = tested on: Watanabe Heritable Hyperlipidemic (WHHL) rabbits; assay: Effect on atherosclerosis in an in vivo atherosclerosis model (1): WHHL rabbits; parameters: species or system rabbit; details: for Lesions in arch section (%) / Lesions in the whole aorta (%): 6 months
Source text: Effect on Atherosclerosis in an in vivo Atherosclerosis Model (1)
In order to evaluate the inhibitory effect of the compound of Example 1 on atherosclerosis in an in vivo atherosclerosis model, Watanabe Heritable Hyperlipidemic (WHHL) rabbits were used.
Specifically, 4 groups of 4 or 5 WHHL rabbits (Kbl: 2 to 3-month-old male) were conditioned for a week, and then 3 groups of them received 1% probucol and 0.2% and 0.5% Example 1 compound contained in a normal chow diet, respectively, by limited feeding (40 g/kg) once a day for 6 months. The other one group similarly received the normal chow diet containing neither probucol nor the compound of Example 1 and was used as a control.
After administration of the compound for 6 months, the aorta was removed from each of the animals and visualized to prepare a photograph of the inside of the aortic sample. White fat deposition area which represents arteriosclerotic lesions was determined by the image analysis on the photograph for each of three parts of the aortic sample (arch, chest and abdomen). From the results, the proportions (percentage) of the fat deposition area to the overall area for the arch section and the whole aorta were obtained. Four or five animals were used for each group for the evaluation.

[3] = tested on: LDL receptor-deficient mice; assay: Effect on formation of xanthoma in an in vivo xanthoma model; details: for Inhibitory effect on formation of xanthomas (in words): LDL receptor-deficient mice; for Xanthoma score: 0.5% in high-fat diet, 13 weeks, forefeet and palpebrae, total score
Source text: Effect on Formation of Xanthoma in an in vivo Xanthoma Model
In order to evaluate the inhibitory effect of the compound of Example 1 on xanthoma in an in vivo xanthoma model, LDL receptor-deficient mice were used.
One of the remaining two groups similarly received a high-fat feed containing neither probucol nor the compound of Example 1 and was used as a control and the other one group similarly received a normal, chow diet feed containing neither probucol nor the compound of Example 1.
After administration of the compound for 13 weeks, xanthomas were scored in both forefeet and palpebrae based on the appearance thereof and the scores were totalized. The number of animals used for the evaluation was 5 for the normal feed group consisting of female mice and 7-9 for the other groups.

[4] = tested on: LDL receptor/apolipoprotein E double hetero-deficient mice; assay: Effect on atherosclerosis in an in vivo atherosclerosis model (3): LDL receptor/Apo E hetero-deficient mice; details: for Inhibitory effect on arteriosclerosis (in words): LDL receptor/Apo E hetero-deficient mice; for Area of Arteriosclerotic lesions (mm^2): female mice, 0.5% in high-fat diet, 6 months, arcus aorta
Source text: Effect on Atherosclerosis in an in vivo Atherosclerosis Model (3)
In order to evaluate the inhibitory effect of the compound of Example 1 on atherosclerosis in an in vivo atherosclerosis model, LDL receptor/apolipoprotein E double hetero-deficient (LDL receptor/Apo E hetero-deficient) mice were used.
One of the remaining two groups similarly received a high-fat feed containing neither probucol nor the compound of Example 1 and was used as a control and the other one group similarly received a normal, chow diet containing neither probucol nor the compound of Example 1.
as §1, with “6 months,” for “13 weeks,”, “2” for “5”, “feed” for “chow diet”, “group” for “group consisting of female mice”, “5-6” for “7-9”

femoral atheroscleroses = details: literature report; cited from earlier work

Row | Compound | Inhibitory effect on arteriosclerosis (in words) [1] | Area of Arteriosclerotic lesions (mm^2) ([1]; female mice) | Area of Arteriosclerotic lesions (mm^2) ([1]; male mice) | Inhibitory effect on atherosclerosis (in words) [2] | Lesions in arch section (%) ([2]; 0.2% in normal chow diet) | Lesions in the whole aorta (%) ([2]; 0.2% in normal chow diet) | Lesions in arch section (%) ([2]; 0.5% in normal chow diet) | Lesions in the whole aorta (%) ([2]; 0.5% in normal chow diet) | Atherosclerosis inhibitory effect compared with probucol (in words) ([2]; at a half of the dosage of probucol) | Inhibitory effect on formation of xanthomas (in words) [3] | Xanthoma score ([3]; female mice) | Xanthoma score ([3]; male mice) | Inhibitory effect on arteriosclerosis (in words) [4] | Area of Arteriosclerotic lesions (mm^2) [4] [mm^2] | Lesions in the whole aorta (%) ([2]; 1% in normal chow diet) | Lesions in arch section (%) ([2]; 1% in normal chow diet, fat deposition area / overall area) | Therapeutic effect on atherosclerosis in clinical tests (in words) (femoral atheroscleroses)
1 | CCCCCC1(CCCCC)Cc2c(cc(C(C)(C)C)c(O)c2C(C)(C)C)O1 [Example 1, 4,6-di-t-butyl-2,2-di-n-pentyl-5-hydroxy-2,3-dihydrobenzofuran] | exhibits an inhibitory effect | 0.192 | 0.185 | strong inhibitory effect | 65.7 ± 3.7 | 44.3 ± 6.8 | 52.6 ± 7.4 | 37.4 ± 5.7 | comparable to that of probucol | strong inhibitory effect | 1.25 ± 0.25 | 0.29 ± 0.20 | strong inhibitory effect | 0.150 | – | – | –
2 | CC(C)(Sc1cc(C(C)(C)C)c(O)c(C(C)(C)C)c1)Sc1cc(C(C)(C)C)c(O)c(C(C)(C)C)c1 [Probucol, probucol, reference compound] | not observed | 0.245 | 0.376 | – | – | – | – | – | – | not observed | 3.43 ± 0.30 | 3.13 ± 0.30 | not observed | 0.451 | 25.2 ± 2.6 | 53.9 ± 5.6 | no therapeutic effect
